Assays:
[1] = biological target: T1, P2X purinoceptor 3 (Homo sapiens) (UniProt P56373); experiment: Antagonist activity at recombinant human P2X3 receptor expressed in Flp-In-293 cells assessed as inhibition of alphabeta-meATP-induced calcium flux preincubated for 10 mins followed by alphabeta-meATP addition measured at 5 sec intervals by Fluo-4 dye based FLIPR assay; format: cell-based
T1 sequence (whole entry): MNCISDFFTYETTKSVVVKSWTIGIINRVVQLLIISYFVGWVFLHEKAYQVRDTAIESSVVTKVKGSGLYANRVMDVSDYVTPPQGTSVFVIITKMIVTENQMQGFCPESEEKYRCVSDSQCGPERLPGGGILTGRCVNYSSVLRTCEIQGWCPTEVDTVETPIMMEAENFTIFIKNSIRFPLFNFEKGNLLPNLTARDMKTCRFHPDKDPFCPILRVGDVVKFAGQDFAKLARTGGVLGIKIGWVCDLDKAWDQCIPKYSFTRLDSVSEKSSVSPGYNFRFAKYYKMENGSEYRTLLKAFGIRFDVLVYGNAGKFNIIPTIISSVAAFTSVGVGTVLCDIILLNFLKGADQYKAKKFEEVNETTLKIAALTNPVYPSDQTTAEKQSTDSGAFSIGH

P2X purinoceptor 3 = biological target: T2, P2X purinoceptor 3 (Homo sapiens, UniProt P56373); experiment: Antagonist activity at recombinant human P2X3 receptor expressed in Flp-In-293 cells assessed as inhibition of CTP-induced […] current response preincubated for 2 mins followed by CTP addition along with test compound by whole cell patch-clamp method; format: cell-based
T2 sequence (P56373 whole entry): T1 sequence (whole entry)

Rattus norvegicus = experiment: Antinociceptive activity in complete freund's adjuvant induced mechanical hypersensitivity Sprague-Dawley rat model assessed as reversal of mechanical hyperalgesia by measuring hind paw withdrawal thresholds at 60 mg/kg, po; format: functional
Cytochrome P450 2C9 = Cytochrome P450 2C9 (Homo sapiens, UniProt P11712); experiment: Inhibition of CYP2C9 (unknown origin); format: ADME
PXR = biological target: T3, PXR (Homo sapiens, UniProt O75469); experiment: Activation of PXR (unknown origin) at 10 uM relative to control; format: ADME; details: read-out: Activity
T3 sequence (O75469 whole entry): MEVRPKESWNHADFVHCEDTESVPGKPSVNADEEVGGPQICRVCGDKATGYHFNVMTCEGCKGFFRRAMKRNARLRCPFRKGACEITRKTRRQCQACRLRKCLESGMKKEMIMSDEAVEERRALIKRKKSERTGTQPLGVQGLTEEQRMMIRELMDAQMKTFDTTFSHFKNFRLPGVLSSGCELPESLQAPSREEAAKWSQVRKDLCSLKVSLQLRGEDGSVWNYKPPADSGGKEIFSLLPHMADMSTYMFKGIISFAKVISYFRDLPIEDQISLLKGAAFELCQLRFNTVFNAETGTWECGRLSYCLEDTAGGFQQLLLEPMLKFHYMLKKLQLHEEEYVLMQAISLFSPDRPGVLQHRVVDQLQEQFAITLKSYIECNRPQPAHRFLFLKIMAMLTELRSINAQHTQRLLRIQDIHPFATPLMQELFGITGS

[2] = biological target: T4, UDP-glucuronosyltransferase 1A1 (Homo sapiens, UniProt P22309); experiment: Inhibition of human UGT1A1 expressed in baculovirus infected insect cells using bilirubin as substrate measured after 10 mins by HPLC analysis; format: ADME
T4 sequence (P22309 whole entry): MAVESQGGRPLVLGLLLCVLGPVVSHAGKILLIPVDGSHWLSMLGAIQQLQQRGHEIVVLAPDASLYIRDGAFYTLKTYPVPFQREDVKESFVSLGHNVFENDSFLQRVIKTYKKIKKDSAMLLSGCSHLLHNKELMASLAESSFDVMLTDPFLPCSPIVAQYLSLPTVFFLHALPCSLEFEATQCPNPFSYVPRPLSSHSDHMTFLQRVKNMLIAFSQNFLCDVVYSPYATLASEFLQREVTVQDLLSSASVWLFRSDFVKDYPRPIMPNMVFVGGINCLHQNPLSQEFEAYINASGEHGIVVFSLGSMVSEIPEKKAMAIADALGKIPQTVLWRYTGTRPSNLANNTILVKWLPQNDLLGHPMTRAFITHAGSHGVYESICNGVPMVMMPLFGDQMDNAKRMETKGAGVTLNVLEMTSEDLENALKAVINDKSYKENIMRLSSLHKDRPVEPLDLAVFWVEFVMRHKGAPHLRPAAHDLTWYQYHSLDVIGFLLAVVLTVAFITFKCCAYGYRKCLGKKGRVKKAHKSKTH

[3] = Oral bioavailability in rat; format: ADME, organism-based; details: in vivo
[4] = Oral bioavailability in dog; format: ADME, organism-based, Canis lupus familiaris; details: in vivo
[5] = Oral bioavailability in rhesus monkey; format: ADME, organism-based, Macaca mulatta; details: in vivo
[6] = Protein binding in rat plasma; format: ADME, cell-free; details: read-out: PPB (converted)
[7] = Intrinsic clearance in rat; format: ADME, organism-based; details: in vivo
[8] = Half life in rat; format: ADME, organism-based; details: in vivo
[9] = biological target: T5, Nuclear receptor subfamily 1 group I member 2 (Homo sapiens, UniProt O75469); experiment: Activation of PXR (unknown origin); format: ADME
T5 sequence (O75469 whole entry): T3 sequence (O75469 whole entry)

[10] = Protein binding in dog plasma; format: ADME, cell-free, Canis lupus familiaris; details: read-out: PPB (converted)
[11] = Intrinsic clearance in dog; format: ADME, organism-based, Canis lupus familiaris; details: in vivo
[12] = Half life in dog; format: ADME, organism-based, Canis lupus familiaris; details: in vivo
[13] = biological target: T4, UDP-glucuronosyltransferase 1A1; experiment: Inhibition of UGT1A1 in human liver microsomes assessed as decrease in estradiol-3 glucuronidation; format: ADME

Chain of Cytochrome P450 2C9 (P11712 whole entry): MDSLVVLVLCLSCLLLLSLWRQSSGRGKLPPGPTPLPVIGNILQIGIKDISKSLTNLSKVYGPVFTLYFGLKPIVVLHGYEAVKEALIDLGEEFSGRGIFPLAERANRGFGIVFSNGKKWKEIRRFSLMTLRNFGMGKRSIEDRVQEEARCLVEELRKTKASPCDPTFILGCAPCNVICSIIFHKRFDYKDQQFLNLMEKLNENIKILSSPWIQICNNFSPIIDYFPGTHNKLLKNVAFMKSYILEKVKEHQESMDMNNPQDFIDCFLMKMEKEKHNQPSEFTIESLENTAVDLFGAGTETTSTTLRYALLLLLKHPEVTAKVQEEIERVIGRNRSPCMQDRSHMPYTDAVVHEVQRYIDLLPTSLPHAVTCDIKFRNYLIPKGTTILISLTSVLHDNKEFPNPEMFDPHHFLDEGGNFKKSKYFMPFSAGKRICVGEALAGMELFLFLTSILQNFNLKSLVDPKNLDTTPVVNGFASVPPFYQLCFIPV

IC50 [1] [nM] | fraction unbound [6] | CLint scaled [7] [mL/min/kg] | SMILES | also measured
21 | 0.016 | 133 | Cc1ccc(-c2cc(C(=O)N[C@H](C)c3ccc(F)cn3)cc(C3=NO[C@H](c4ccccn4)C3)c2)nc1 | IC50 (P2X purinoceptor 3): 24 nM; EC90 (Rattus norvegicus): 3 µM; IC50 (Cytochrome P450 2C9): 5.7 µM; activity at 10 µM (PXR): 47%; IC50 [2]: 1000 nM; bioavailability [3]: 60%; bioavailability [4]: 68%; bioavailability [5]: 47%; half-life [8]: 60 min
37 | 0.026 | 3910 | Cc1ccc(-c2cc(C(=O)N[C@H](C)c3ccc(F)cn3)cc(-n3nccn3)c2)nc1 | –
17 | – | – | Cc1ccc(-c2cc(C(=O)N[C@@H](C)c3nc(C)no3)cc(-c3ncccc3F)c2)nc1 | –
21 | 0.026 | 214 | C[C@@H](NC(=O)c1cc(-c2ccc(Cl)cc2)cc(C(C)(C)O)c1)c1ccc(C(F)(F)F)[n+]([O-])c1 | half-life [8]: 144 min
5 | 0.376 | – | Cc1ccc(-c2cc(C(=O)N[C@H](C)c3ccc(C(F)(F)F)[n+]([O-])c3)cc(C(C)(C)O)c2)nc1 | IC50 (Cytochrome P450 2C9): > 50 µM; EC50 [9]: > 30 µM
14 | 0.238 | 69 | C[C@@H](NC(=O)c1cc(-c2ccc(Cl)cn2)cc(C(C)(C)O)c1)c1ccc(C(F)(F)F)[n+]([O-])c1 | IC50 (P2X purinoceptor 3): 18 nM; EC90 (Rattus norvegicus): 0.16 µM; IC50 (Cytochrome P450 2C9): 82 µM; bioavailability [3]: 13%; bioavailability [4]: 63%; half-life [8]: 78 min; fraction unbound [10]: 0.263; CLint scaled [11]: 7.7 mL/min/kg; half-life [12]: 234 min; IC50 [13]: > 20 µM; EC50 [9]: > 30 µM
10 | 0.012 | – | Cc1ccc(-c2cc(C(=O)N[C@@H](C)c3nnc[nH]3)cc(-c3ncccc3F)c2)nc1 | –
20 | 0.046 | 6790 | Cc1ccc(-c2cc(C(=O)N[C@H](C)c3ccc(C(F)(F)F)[n+]([O-])c3)cc(C(C)(C)O)c2)cc1 | half-life [8]: 12 min
45 | – | – | Cc1ccc(-c2cc(C(=O)NCCc3nc(C)no3)cc(-c3ncccc3F)c2)nc1 | –
67 | 0.18 | – | Cc1ccc(-c2cc(C(=O)N[C@H](C)c3ccc(F)cn3)cc(C(C)(C)O)c2)nc1 | EC50 [9]: 2 µM
155 | – | – | Cc1ccc(-c2cc(C(=O)NCc3nc(C(C)C)no3)cc(-c3ncccc3F)c2)nc1 | –
284 | – | – | Cc1ccc(-c2cc(C(=O)N[C@H](C)c3nnc[nH]3)cc(-c3ncccc3F)c2)nc1 | –
3 | 0.004 | – | Cc1ccc(-c2cc(C(=O)N[C@H](C)c3nc(C)no3)cc(-c3ncccc3F)c2)nc1 | –
2 | 0.096 | – | Cc1ccc(-c2cc(C(=O)N[C@H](C)c3ccc(F)c[n+]3[O-])cc(-c3ncccc3F)c2)nc1 | –
170 | – | – | Cc1ccc(-c2cc(C(=O)NC3(c4nc(C)no4)CC3)cc(-c3ncccc3F)c2)nc1 | –
30 | – | – | Cc1ccc(-c2cc(C(=O)N[C@@H](c3nc(C)no3)C3CC3)cc(-c3ncccc3F)c2)nc1 | –
5 | 0.048 | – | Cc1ccc(-c2cc(C(=O)N[C@H](C)c3ccc(C(F)(F)F)[n+]([O-])c3)cc(-c3ncccc3F)c2)nc1 | –
14 | 0.048 | – | Cc1ccc(-c2cc(C(=O)N[C@H](C)c3ccc(C(F)(F)F)nc3)cc(C(C)(C)O)c2)nc1 | IC50 (Cytochrome P450 2C9): 19 µM; EC50 [9]: 18 µM
82 | 0.447 | 477 | C[C@@H](NC(=O)c1cc(-c2ccc(F)cn2)cc(C(C)(C)O)c1)c1ccc(C(F)(F)F)[n+]([O-])c1 | half-life [8]: 28.8 min
8 | 0.008 | 24800 | Cc1ccc(-c2cc(C(=O)N[C@H](C)c3ccc(F)cn3)cc(-c3ncccc3F)c2)nc1 | EC50 [9]: 6 µM
8 | 0.014 | – | Cc1ccc(-c2cc(C(=O)N[C@H](C)c3ccc(C(F)(F)F)nc3)cc(-c3ncccc3F)c2)nc1 | –
47 | 0.149 | 533 | Cc1ccc(-c2cc(C(=O)N[C@H](C)c3ccc(F)cn3)cc(N3CCOCC3)c2)nc1 | EC50 [9]: > 30 µM

Source: ChEMBL document CHEMBL4219153, “Identification of second-generation P2X3 antagonists for treatment of pain” (Bioorg Med Chem Lett, 2018)
